# Measured values as given in PMC11821258 (Molecules, 2025).
# Experiments:
# [1] = tested on: human biphenotypic B myelomonocytic leukemia MV4-11; details: MV4-11, literature data ref 36; cited from earlier work
# [2] = tested on: human lung carcinoma A549; details: A549, literature data ref 36; cited from earlier work
# [3] = tested on: human breast cancer MCF-7; details: MCF-7, literature data ref 36; cited from earlier work
# [4] = tested on: human prostate adenocarcinoma PC-3; details: PC-3, literature data ref 36; cited from earlier work
# [5] = tested on: human colon cancer HCT116 cells; details: HCT116, literature data ref 36; cited from earlier work
# [6] = tested on: human normal epithelial cells from the mammary gland (MCF-10A); details: literature data ref 36; cited from earlier work
# MV4-11 cells = test: Apoptosis determination via Annexin V and PI staining; format: cell-based, human; details: MV4-11, 24 h
# Protocol: Camptothecin at a concentration of 0.05 uM was used as a positive control. After incubation, the cells were collected and counted with a hemocytometer, and 1×10^5 cells were washed twice with PBS. APC-Annexin V (Becton Dickinson, Pharmingen, Franklin Lakes, NJ, USA) was dissolved to the concentration of […] in a binding buffer (10 mM HEPES/NaOH, pH 7.4; 150 mM NaCl; 5 mM KCl; 1 mM MgCl2; and 1.8 mM CaCl2) (HIIET, Wrocław, Poland), and the cells were suspended in 200 µL of this solution. After 15 min of the incubation in the dark at room temperature, 20 µL of propidium iodide (PI) solution (0.02 mg/mL) was added. Data acquisition was performed by conducting flow cytometry using a BD LSRFortessa cytometer (BD Bioscience, San Jose, CA, USA). The compounds were tested at least three times independently. Results were analyzed using Flowing software 2.5.1 (Turku, Finland). […] Double-negative cells were live cells, PI+/Annexin V+ were late apoptotic cells, PI-/Annexin V+ were early apoptotic cells, and PI+/Annexin V- were necrotic cells.
# [7] = tested on: caspase-3/7 in MV4-11 cells; test: Caspase-3/7 activity determination; format: cell-based, human; details: MV4-11, positive control
# Protocol: The MV4-11 cells were seeded on 48-well plates to the final volume of 1 mL. […] After incubation, the cells were collected and centrifuged (5 min, 4 °C, 250× g). Cells were suspended in 50 µL of ice-cold lysis buffer (50 mM HEPES; 10% (w/v) sucrose; 150 mM NaCl; 2 mM EDTA; 1% (v/v) Triton X-100, pH 7.3; and HIIET, Wrocław, Poland) and incubated for 30 min at 4 °C. After the incubation, 40 µL of each sample was transferred to a white 96-well plate (Corning, USA) containing 160 µL of the reaction buffer (20 mM HEPES; 10% sucrose; 100 mM NaCl; 1 mM EDTA; 10 mM DTT; and 0.02% Trition X-100, pH 7.3) (HIIET, Wrocław, Poland) with a 9 µM AC-DEVD-AMC (Cayman Chemical, Ann Arbor, MI, USA) fluorogenic substrate (λex = 360 nm, λem = 460 nm). The correlation of the fluorescence increase with the caspase-3/7 level was continuously recorded at 37 °C for 120 min using Biotek Synergy H4 (Biokom, Warsaw, Poland). Compounds were tested in duplicates in single experiments, and each experiment was repeated at least three times independently. Results were normalized to the number of cells in each well and are reported as the mean relative caspase-3/7 activity compared to the untreated control sample ± SD.
SMILES,IC50 [1],IC50 [2],IC50 [3],IC50 [4],IC50 [5],IC50 [6],induction of apoptosis (MV4-11 cells),activity of caspase-3 in comparison to control cells [7]
"COc1cccc2c1C(=O)c1c(O)c3c(c(O)c1C2=O)C[C@@](O)(C(=O)CO)C[C@@H]3O[C@H]1C[C@H](N)[C@H](O)[C@H](C)O1 [C, doxorubicin]",21 ± 8 nM,40 ± 12 nM,150 ± 15 nM,1270 ± 200 nM,118 ± 20 nM,114 ± 13 nM,,
"CC[C@@]1(O)C(=O)OCc2c1cc1n(c2=O)Cc2cc3ccccc3nc2-1 [camptothecin, reference compound]",,,,,,,induced apoptosis,5 fold
